Numbers after ± are expanded uncertainties.
Experiments:
[1] = xn = mol fraction of the nth substance listed; details: 298.15 K, 100 kPa, Liquid; for speed of sound: Frequency=3 MHz, Single path-length method; for mass density: Vibrating tube method
[2] = excess molar enthalpy (molar enthalpy of mixing); xn = mol fraction of the nth substance listed; details: 298.15 K, 100 kPa, Liquid, Power-compensation calorimetry
[3] = 298.15 K, 100 kPa, Liquid; for speed of sound: Frequency=3 MHz, Single path-length method; for mass density: Vibrating tube method

COC(=O)C(C)O (stereo not drawn) [methyl 2-hydroxypropanoate] + CO
Details	excess molar enthalpy, [2] [kcal/mol]	mass density, [1] [kg/m3]	speed of sound, [1] [m/s]
x1 = 0.0565	–	826.67 ± 0.19	1134.5 ± 0.56
x1 = 0.0945	–	850.35 ± 0.17	1152.9 ± 0.56
x1 = 0.104	0.0038 ± 0.000215	–	–
x1 = 0.151	0.00392 ± 0.000215	–	–
x1 = 0.1933	–	902.12 ± 0.15	1196.4 ± 0.56
x1 = 0.262	0.00117 ± 0.000215	–	–
x1 = 0.287	0.000215 ± 0.000215	–	–
x1 = 0.3029	–	947.03 ± 0.14	1234.1 ± 0.56
x1 = 0.316	-0.000956 ± 0.000215	–	–
x1 = 0.3844	–	974.04 ± 0.13	1254.7 ± 0.57
x1 = 0.399	-0.00413 ± 0.000239	–	–
x1 = 0.482	-0.00719 ± 0.000239	–	–
x1 = 0.5099	–	1008.1 ± 0.12	1282.4 ± 0.57
x1 = 0.595	-0.00903 ± 0.000263	–	–
x1 = 0.6105	–	1029.88 ± 0.12	1301.4 ± 0.57
x1 = 0.687	-0.00937 ± 0.000263	–	–
x1 = 0.7215	–	1049.84 ± 0.12	1318.2 ± 0.58
x1 = 0.798	-0.00686 ± 0.000239	–	–
x1 = 0.8206	–	1064.82 ± 0.13	1329.8 ± 0.58
x1 = 0.879	-0.0044 ± 0.000239	–	–
x1 = 0.9225	–	1078.13 ± 0.13	1337.1 ± 0.59
x1 = 0.945	-0.00194 ± 0.000215	–	–
x1 = 0.9601	–	1082.7 ± 0.13	1338.8 ± 0.59
x1 = 1	–	1087.35 ± 0.13	1339.3 ± 0.59

COC(=O)C(C)O (stereo not drawn) [methyl 2-hydroxypropanoate]
[3]
Details	mass density [kg/m3]	speed of sound [m/s]
–	1087.35 ± 0.13	1339.3 ± 0.59

CCO [ethanol] + CCOC(=O)C(C)O
[1], x2 = 0
Details	mass density [kg/m3]	speed of sound [m/s]
–	785.16 ± 0.15	1143.2 ± 0.55

CCO [ethanol]
[3]
Details	mass density [kg/m3]	speed of sound [m/s]
–	785.16 ± 0.15	1143.2 ± 0.55

COC(=O)C(C)O (stereo not drawn) [methyl 2-hydroxypropanoate] + CCCCO
Details	excess molar enthalpy, [2] [kcal/mol]	mass density, [1] [kg/m3]	speed of sound, [1] [m/s]
x1 = 0.054	0.0531 ± 0.00167	–	–
x1 = 0.0589	–	822.83 ± 0.15	1242.8 ± 0.52
x1 = 0.1088	–	837.09 ± 0.15	1245.1 ± 0.52
x1 = 0.132	0.109 ± 0.00191	–	–
x1 = 0.174	0.138 ± 0.00215	–	–
x1 = 0.1905	–	860.37 ± 0.14	1249.8 ± 0.53
x1 = 0.287	0.186 ± 0.00239	–	–
x1 = 0.2973	–	890.71 ± 0.14	1257.2 ± 0.54
x1 = 0.384	0.204 ± 0.00263	–	–
x1 = 0.3887	–	916.62 ± 0.13	1265 ± 0.54
x1 = 0.487	0.207 ± 0.00263	–	–
x1 = 0.4999	–	948.04 ± 0.13	1275.8 ± 0.55
x1 = 0.552	0.2 ± 0.00263	–	–
x1 = 0.5977	–	975.58 ± 0.13	1286.4 ± 0.56
x1 = 0.6976	–	1003.57 ± 0.12	1298.3 ± 0.56
x1 = 0.705	0.16 ± 0.00215	–	–
x1 = 0.75	0.136 ± 0.00215	–	–
x1 = 0.7926	–	1030.02 ± 0.13	1310.6 ± 0.57
x1 = 0.864	0.0767 ± 0.00143	–	–
x1 = 0.9107	–	1062.72 ± 0.13	1326.6 ± 0.58
x1 = 0.934	0.039 ± 0.0012	–	–
x1 = 0.9577	–	1075.69 ± 0.14	1333.2 ± 0.59
x1 = 1	–	1087.35 ± 0.13	1339.3 ± 0.59

CCOC(=O)C(C)O (racemic) [DL-ethyl lactate]
[3]
Details	mass density [kg/m3]	speed of sound [m/s]
–	1028.45 ± 0.12	1279.3 ± 0.59

CCO [ethanol] + COC(=O)C(C)O
[1], x2 = 0
Details	mass density [kg/m3]	speed of sound [m/s]
–	785.16 ± 0.15	1143.2 ± 0.55

CCOC(=O)C(C)O (stereo not drawn) [DL-ethyl lactate] + CO
Details	excess molar enthalpy, [2] [kcal/mol]	mass density, [1] [kg/m3]	speed of sound, [1] [m/s]
x1 = 0.0432	–	816.63 ± 0.19	1125.5 ± 0.6
x1 = 0.051	-0.0088 ± 0.000382	–	–
x1 = 0.0935	–	846.09 ± 0.17	1149.1 ± 0.56
x1 = 0.104	-0.0166 ± 0.00043	–	–
x1 = 0.1911	–	890.78 ± 0.15	1187 ± 0.56
x1 = 0.209	-0.0299 ± 0.000478	–	–
x1 = 0.2979	–	926.51 ± 0.13	1215.4 ± 0.56
x1 = 0.327	-0.0361 ± 0.000478	–	–
x1 = 0.3976	–	951.94 ± 0.12	1234.5 ± 0.57
x1 = 0.437	-0.0378 ± 0.000478	–	–
x1 = 0.5018	–	972.85 ± 0.12	1250.5 ± 0.57
x1 = 0.569	-0.0356 ± 0.000478	–	–
x1 = 0.5789	–	985.46 ± 0.12	1259 ± 0.57
x1 = 0.621	-0.0313 ± 0.000478	–	–
x1 = 0.695	–	1000.96 ± 0.11	1270.3 ± 0.58
x1 = 0.763	-0.0199 ± 0.000406	–	–
x1 = 0.8045	–	1012.66 ± 0.12	1275.9 ± 0.58
x1 = 0.83	-0.0134 ± 0.000359	–	–
x1 = 0.9018	–	1021.2 ± 0.12	1278.2 ± 0.59
x1 = 0.905	-0.00672 ± 0.000287	–	–
x1 = 0.958	-0.00263 ± 0.000263	–	–
x1 = 0.9622	–	1025.79 ± 0.12	1279 ± 0.59
x1 = 1	–	1028.45 ± 0.12	1279.3 ± 0.59

CCCO [propan-1-ol] + CCOC(=O)C(C)O
[1], x2 = 0
Details	mass density [kg/m3]	speed of sound [m/s]
–	799.66 ± 0.15	1206 ± 0.55

CCCCO [butan-1-ol] + COC(=O)C(C)O
[1], x2 = 0
Details	mass density [kg/m3]	speed of sound [m/s]
–	805.95 ± 0.14	1240.4 ± 0.52

CCCCO [butan-1-ol]
[3]
Details	mass density [kg/m3]	speed of sound [m/s]
–	805.95 ± 0.14	1240.4 ± 0.52

CCOC(=O)C(C)O (stereo not drawn) [DL-ethyl lactate] + CCCO
Details	excess molar enthalpy, [2] [kcal/mol]	mass density, [1] [kg/m3]	speed of sound, [1] [m/s]
x1 = 0.025	0.0229 ± 0.00172	–	–
x1 = 0.0489	–	816.57 ± 0.16	1211.1 ± 0.55
x1 = 0.054	0.0473 ± 0.00143	–	–
x1 = 0.1025	–	834.15 ± 0.15	1216.4 ± 0.55
x1 = 0.117	0.0815 ± 0.00143	–	–
x1 = 0.2027	–	864.58 ± 0.14	1225.8 ± 0.56
x1 = 0.216	0.109 ± 0.00143	–	–
x1 = 0.3036	–	892.35 ± 0.14	1235.2 ± 0.56
x1 = 0.309	0.12 ± 0.00167	–	–
x1 = 0.3973	–	915.89 ± 0.13	1242.5 ± 0.56
x1 = 0.404	0.121 ± 0.00167	–	–
x1 = 0.4963	–	938.64 ± 0.13	1250.2 ± 0.57
x1 = 0.517	0.115 ± 0.00143	–	–
x1 = 0.6012	–	960.68 ± 0.12	1257.8 ± 0.57
x1 = 0.612	0.101 ± 0.00143	–	–
x1 = 0.6951	–	978.76 ± 0.12	1263.9 ± 0.58
x1 = 0.712	0.0765 ± 0.0012	–	–
x1 = 0.8061	–	998.37 ± 0.12	1270.4 ± 0.58
x1 = 0.814	0.0459 ± 0.000956	–	–
x1 = 0.905	0.021 ± 0.000669	–	–
x1 = 0.9076	–	1014.74 ± 0.12	1275.6 ± 0.59
x1 = 0.9482	–	1020.9 ± 0.12	1277.3 ± 0.59
x1 = 1	–	1028.45 ± 0.12	1279.3 ± 0.59

CCCCO [butan-1-ol] + CCOC(=O)C(C)O
[1], x2 = 0
Details	mass density [kg/m3]	speed of sound [m/s]
–	805.95 ± 0.14	1240.4 ± 0.52

CO [methanol] + CCOC(=O)C(C)O
[1], x2 = 0
Details	mass density [kg/m3]	speed of sound [m/s]
–	786.53 ± 0.15	1104 ± 0.55

CCCO [propan-1-ol] + COC(=O)C(C)O
[1], x2 = 0
Details	mass density [kg/m3]	speed of sound [m/s]
–	799.66 ± 0.15	1206 ± 0.55

From the NIST ThermoML archive (doi:10.1016/j.jct.2018.07.013)
